The source of these data is patent publication US4036979A, “Compositions containing 4,5,6,7-tetrahydrobenz[b]thien-4-yl-ureas or derivatives and methods of enhancing growth rate” (American Cyanamid Company, priority 1976, dated 1977).

Each structure is given as a SMILES string. Where “and” joins values, the source holds several entries; their conditions need not be identical. Identical values can stand only once.

Assay [1] is described as follows: Growth enhancement and feed efficiency improvement in sheep fed levels of test compounds (six weeks). The assay is classed as in vivo, sheep (Wether lambs). The settings on record: for Average Daily Gain (kg)/Lamb, av. / Six-Week Feed/Gain, av.: average of 5 replications; for Average Daily Gain (kg)/Lamb / Six-Week Feed/Gain: replications 1 to 5. An excerpt:
To determine the effect of feeding experimental compounds on sheep performance, Wether lambs are randomly allotted to pens in groups of six. The sheep are weighed and permitted feed and water ad libitum. The feed is weighed daily, and uneaten feed from the previous day is collected and weighed. Test lambs receive the same diet as control animals but with the addition of experimental compound at a concentration of either 15 or 60 ppm. At the end of the six-week treatment period, the lambs are again weighed, and total feed is calculated.
In these tests, five replicates of six lambs each per treatment are used.

The nature of assay [2]: Mouse Growth Regulant Tests (12-day weight gain over controls, compound in diet). The format is in vivo, CFI female mice. As to conditions: for change in vivo at 400 ppm: 400 ppm in diet; for change in vivo at 200 ppm: 200 ppm in diet; for change in vivo at 50 ppm: 50 ppm in diet. As to the method: CFI female mice from Carworth Farms are received when they are six weeks old. They are housed ten to a cage in air-conditioned rooms (72° F. to 76° F.) with automatically controlled lights, 14 hours on and 10 hours off. The basal diet used in these studies is Purina Laboratory Chow (see description below), which is supplied ad libitum. Water is also allowed ad libitum.
Thirteen days after arrival, the mice are weighed in groups of ten and assigned at random to the different treatments. Twelve days later the mice are weighed again and the experiment terminated. At least three cages (30 mice) of untreated controls are included in each test. Test data are provided in Tables VI, VII, VIII, and IX below wherein data are reported as percent weight gain over controls. Unless otherwise indicated in these tables, all compounds tested were dl-racemic mixtures. The following is a description of the diet to which the growth promoting compounds were added.

The mark [3] stands for this setting: Mus musculus, feed or water, 288 h, Table VI.
Setting [4] is: Mus musculus, feed or water, 288 h, Table VII.
The mark [5] stands for this setting: Mus musculus, feed or water, 288 h, Table VIII.

Regarding `NC(=O)NC1CCC(=O)c2sccc21` (stereo not drawn) [Compound B, 4,5,6,7-tetrahydro-7-oxobenzo[b]thien-4-ylurea], in assay [1] (15 ppm in feed), the “Average Daily Gain (kg)/Lamb, av.” value worked out at 0.202 kg; the “Six-Week Feed/Gain, av.” value was 6.216; the “Average Daily Gain (kg)/Lamb” value is 0.187 kg and 0.208 kg and 0.218 kg and 0.186 kg and 0.210 kg; the “Six-Week Feed/Gain” value was 6.785 and 6.067 and 5.344 and 6.795 and 6.089. In addition, in assay [1] (60 ppm in feed), the “Average Daily Gain (kg)/Lamb, av.” value was found to be 0.208 kg; the “Six-Week Feed/Gain, av.” value turned out to be 5.151; the “Average Daily Gain (kg)/Lamb” value was 0.216 kg and 0.207 kg and 0.237 kg and 0.189 kg and 0.190 kg; the “Six-Week Feed/Gain” value was 6.116 and 6.263 and 5.144 and 6.723 and 6.506.
With `O=C(NOc1ccccc1)NC1CCCc2sccc21` (stereo not drawn), in assay [2] (setting [3]), the change in vivo at 400 ppm is 90.6%.
Same read-out and setting: the result for `O=C(NC1CCCc2ccccc21)NC1CCCc2sccc21` (stereo not drawn) reads 4%.
Take `COCNC(=O)NC1CCC(=O)c2sccc21` (stereo not drawn) [Table VII: O,H,CH2OCH3, 1-(methoxymethyl)-3-(4,5,6,7-tetrahydro-7-oxobenzo[b]thien-4-yl)urea]: the change in vivo at 400 ppm in assay [2] (setting [4]) came to 143%.
Consider `CC(C)NC(=O)NC1CCC(=O)c2sccc21` (stereo not drawn) [Table VII: O,H,iso-C3H7], for which the change in vivo at 200 ppm in assay [2] (setting [4]) came out at 84%.
Turning to `O=C(NOCc1ccccc1)NC1CCCc2sccc21` (stereo not drawn) [Table VI: O,H,H,H,H,OCH2C6H5, 1-benzyloxy-3-(4,5,6,7-tetrahydrobenzo[b]thien-4-yl)urea], the change in vivo at 400 ppm in assay [2] (setting [3]) came to 7.8%.
Same read-out and setting: then `O=C(NC1CC1)NC1CCCc2sccc21` (stereo not drawn), with 31%.
Still for that read-out and setting: then `CCCCCCONC(=O)NC1CCCc2sccc21` (stereo not drawn) [Table VI: O,H,H,H,H,On-C6H13], with 29%.
As to `CCCCCCCCNC(=O)NC1CCC(=O)c2sccc21` (stereo not drawn) [Table VII: O,H,n-C8H17], the change in vivo at 400 ppm in assay [2] (setting [4]) turned out to be 83.4%.
For the compound `CCCCNC(=S)NC1CCCc2sccc21` (stereo not drawn) [Table VI: S,H,H,H,H,n-butyl], in assay [2] (setting [3]), the change in vivo at 400 ppm came out at 75%.
In the case of `NC(=O)NC1CCC(=O)c2sccc21` (single isomer, unassigned; (-)) [Table VII: O,H,H (levorotatory enantiomorph), (-)-4,5,6,7-tetrahydro-7-oxobenzo[b]thien-4-ylurea], the change in vivo at 25 ppm in assay [2] (Mus musculus, feed or water, 288 h, Table VII, 25 ppm in diet) amounted to 119%.
Regarding `CCCCCCCCNC(=S)NC1CCCc2sccc21` (stereo not drawn) [Table VI: S,H,H,H,H,n-C8H17], in assay [2] (setting [3]), the change in vivo at 400 ppm stood at 16%.
As for `C#CCNC(=O)NC1CCC(O)c2sccc21` (stereo not drawn) [Table VIII: O,H,CH2CCH, 1-(2-propynyl)-3-(7-hydroxy-4,5,6,7-tetrahydrobenzo[b]thien-4-yl)urea], the change in vivo at 50 ppm in assay [2] (setting [5]) turned out to be 49.2%.
With `O=C(NCc1ccccn1)NC1CCCc2sccc21` (stereo not drawn), the change in vivo at 400 ppm in assay [2] (setting [3]) amounted to 41%.
With `NC(=O)NC1CCC(O)c2sccc21` (single isomer, unassigned; (-)) [Table VIII: O,H,H (levorotatory diastereomer, 86% isomer A)], the “& Weight Gain Over Controls” value in assay [2] (Table VIII, 25 ppm in diet) turned out to be 54.4%.
For the compound `NC(=O)NC1CCCc2sc(Cl)cc21` (stereo not drawn) [Table VI: O,Cl,H,H,H,H, 2-chloro-4,5,6,7-tetrahydrobenzo[b]thien-4-ylurea], the change in vivo at 400 ppm in assay [2] (setting [3]) is 4.8%.
On the same count and under the same terms, then `C#CCNC(=O)NC1CCCc2sccc21` (stereo not drawn) [Table VI: O,H,H,H,H,CH2CCH], with 82%; and `N#CCNC(=O)NC1CCCc2sccc21` (stereo not drawn) [Table VI: O,H,H,H,H,CH2CN], with 12%; and `CCCCCCNC(=O)NC1CCCc2sccc21` (stereo not drawn) [Table VI: O,H,H,H,H,n-hexyl, 1-(n-hexyl)-3-(4,5,6,7-tetrahydrobenzo[b]thien-4-yl)urea], with 14.5%.
Turning to `NC(=O)NC1CCC(O)c2sccc21` (single isomer, unassigned; (+)) [Table VIII: O,H,H (dextrorotatory diastereomer, 95% isomer B), (+)-4,5,6,7-tetrahydro-7-hydroxybenzo[b]thien-4-ylurea], the change in vivo at 50 ppm in assay [2] (setting [5]) was -11.3%.
Take `C#CCN(C)C(=O)NC1CCCc2sccc21` (stereo not drawn) [Table VI: O,H,H,H,CH3,CH2CCH]: in assay [2] (setting [3]), the change in vivo at 400 ppm is 29%.
Consider `CN(C)C(=O)NC1CCC(O)c2sccc21` (stereo not drawn) [Table VIII: O,CH3,CH3, 1,1-dimethyl-3-(7-hydroxy-4,5,6,7-tetrahydrobenzo[b]thien-4-yl)urea], for which, in assay [2] (setting [5]), the change in vivo at 400 ppm is 81.5%.
With `CCC(C)NC(=O)NC1CCCc2sc(C)c(C)c21` (stereo not drawn) [Table VI: O,CH3,CH3,H,2-butyl,H], the change in vivo at 400 ppm in assay [2] (setting [3]) stood at 3%.
On the same count and under the same terms, the result for `C[n+]1cccc(CNC(=O)NC2CCCc3sccc32)c1` (stereo not drawn) reads 6%.
Take `NC(=O)NC1CCC(=O)c2sccc21` (single isomer, unassigned; (+)) [Table VII: O,H,H (dextrorotatory enantiomorph), (+)-4,5,6,7-tetrahydro-7-oxobenzo[b]thien-4-ylurea]: the change in vivo at 200 ppm in assay [2] (setting [4]) was determined as 9.4%.
Regarding `CCCCNC(=O)NC1CCCc2sccc21` (stereo not drawn) [Table VI: O,H,H,H,H,n-butyl], in assay [2] (setting [3]), the change in vivo at 200 ppm is 25%.
